The values below come from patent publication US9932314B2, “Pyrazole compounds and their use as T-type calcium channel blockers” (IDORSIA PHARMACEUTICALS LTD, priority 2015, dated 2018).

T1 sequence (O95180 whole entry): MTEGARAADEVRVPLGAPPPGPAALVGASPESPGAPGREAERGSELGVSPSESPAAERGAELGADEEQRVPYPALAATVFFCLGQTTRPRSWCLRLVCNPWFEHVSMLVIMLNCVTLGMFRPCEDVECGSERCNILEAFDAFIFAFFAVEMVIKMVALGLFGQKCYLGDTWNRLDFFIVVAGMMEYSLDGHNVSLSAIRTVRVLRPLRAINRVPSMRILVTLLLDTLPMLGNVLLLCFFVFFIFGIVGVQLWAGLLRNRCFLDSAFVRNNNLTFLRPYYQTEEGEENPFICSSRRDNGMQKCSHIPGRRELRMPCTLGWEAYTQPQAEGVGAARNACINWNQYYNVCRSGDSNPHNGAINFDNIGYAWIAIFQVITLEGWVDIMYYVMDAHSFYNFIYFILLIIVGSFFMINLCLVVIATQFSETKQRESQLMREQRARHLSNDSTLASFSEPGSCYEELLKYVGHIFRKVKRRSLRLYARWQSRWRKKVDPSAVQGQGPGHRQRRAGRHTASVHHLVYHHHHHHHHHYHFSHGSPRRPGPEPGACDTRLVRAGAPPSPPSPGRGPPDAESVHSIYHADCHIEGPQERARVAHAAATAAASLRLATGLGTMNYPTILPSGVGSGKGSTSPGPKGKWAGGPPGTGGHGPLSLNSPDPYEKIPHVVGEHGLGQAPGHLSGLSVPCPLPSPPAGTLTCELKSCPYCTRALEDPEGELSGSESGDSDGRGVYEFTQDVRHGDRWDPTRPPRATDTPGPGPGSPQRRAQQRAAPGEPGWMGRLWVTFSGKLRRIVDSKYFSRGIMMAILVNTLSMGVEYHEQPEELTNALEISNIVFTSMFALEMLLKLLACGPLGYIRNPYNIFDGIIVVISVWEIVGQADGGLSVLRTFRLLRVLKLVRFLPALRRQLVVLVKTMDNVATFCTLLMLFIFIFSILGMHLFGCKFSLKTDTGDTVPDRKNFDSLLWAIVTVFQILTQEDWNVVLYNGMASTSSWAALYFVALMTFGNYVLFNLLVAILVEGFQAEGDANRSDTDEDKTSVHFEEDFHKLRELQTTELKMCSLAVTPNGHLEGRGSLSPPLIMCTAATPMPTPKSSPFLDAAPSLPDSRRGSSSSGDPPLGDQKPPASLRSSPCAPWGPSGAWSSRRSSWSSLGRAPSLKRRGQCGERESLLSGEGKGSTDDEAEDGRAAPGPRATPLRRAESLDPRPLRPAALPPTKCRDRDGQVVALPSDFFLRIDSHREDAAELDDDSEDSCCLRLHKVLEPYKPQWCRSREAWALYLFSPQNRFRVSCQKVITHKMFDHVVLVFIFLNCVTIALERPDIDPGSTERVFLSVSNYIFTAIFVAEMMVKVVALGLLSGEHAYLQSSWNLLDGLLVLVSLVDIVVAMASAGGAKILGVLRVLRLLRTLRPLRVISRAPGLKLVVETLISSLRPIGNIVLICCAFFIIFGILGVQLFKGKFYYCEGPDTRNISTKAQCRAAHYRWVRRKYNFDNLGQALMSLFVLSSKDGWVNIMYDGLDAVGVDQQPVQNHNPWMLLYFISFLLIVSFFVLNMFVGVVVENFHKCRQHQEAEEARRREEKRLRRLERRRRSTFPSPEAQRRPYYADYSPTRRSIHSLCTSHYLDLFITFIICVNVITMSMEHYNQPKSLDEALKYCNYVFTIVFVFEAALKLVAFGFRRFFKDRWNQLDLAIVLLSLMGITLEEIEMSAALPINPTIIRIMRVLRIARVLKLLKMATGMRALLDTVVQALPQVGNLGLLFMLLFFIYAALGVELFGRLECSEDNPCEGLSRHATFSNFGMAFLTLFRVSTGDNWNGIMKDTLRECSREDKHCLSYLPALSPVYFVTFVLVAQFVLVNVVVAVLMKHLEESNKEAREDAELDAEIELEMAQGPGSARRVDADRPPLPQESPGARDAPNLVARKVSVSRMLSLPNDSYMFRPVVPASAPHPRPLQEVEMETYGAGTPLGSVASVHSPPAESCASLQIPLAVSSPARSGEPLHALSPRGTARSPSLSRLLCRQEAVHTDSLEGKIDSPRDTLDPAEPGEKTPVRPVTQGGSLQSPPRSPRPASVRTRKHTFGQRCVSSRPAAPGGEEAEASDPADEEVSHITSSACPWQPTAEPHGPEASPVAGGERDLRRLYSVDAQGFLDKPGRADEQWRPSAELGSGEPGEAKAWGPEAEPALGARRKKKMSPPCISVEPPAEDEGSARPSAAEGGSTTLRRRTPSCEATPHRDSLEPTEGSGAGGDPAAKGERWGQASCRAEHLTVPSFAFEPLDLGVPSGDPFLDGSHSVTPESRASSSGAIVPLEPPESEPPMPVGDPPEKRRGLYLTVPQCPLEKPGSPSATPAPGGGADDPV

The test concerns the target T1, voltage-dependent T-type calcium channel subunit alpha-1G (Cav3.2) (Homo sapiens, UniProt O95180).
T1 construct: expressed in transfected cells; host or cells: HEK293
Nature of the test: FLIPR calcium flux assay, HEK293 cells recombinantly expressing Cav3.2. As to conditions: Cav3.2-channel, Fluo-4-AM, 3 min incubation, stimulation with 10 mM CaCl2. It counts as cell-based. The procedure, abridged:
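HEK293 cells stably expressing human Cav3.2 were loaded with Fluo-4-AM. Compounds diluted in TEAC buffer (pH 7.2) were preincubated for 3 min, then Ca2+ entry was triggered by 10 mM final CaCl2. Inhibition curves were fitted sigmoidally to the area under the fluorescence trace.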
Turning to `CC(C)(c1ccc(CC(=O)Nc2ccn(Cc3ccc(C#N)cn3)n2)cc1)C(F)(F)F` [Example 376, N-[1-(5-Cyano-pyridin-2-ylmethyl)-1H-pyrazol-3-yl]-2-[4-(2,2,2-trifluoro-1,1-dimethyl-ethyl)-phenyl]-acetamide], the concentration for half-maximal inhibition (IC50) – broadly, the point on the concentration scale where inhibition reaches its midpoint – amounted to 20 nM.

For the compound `Cc1ccc(Cn2ccc(NC(=O)Cc3ccc(C4(C)CC4)cc3)n2)nc1C#N` [Example 377, N-[1-(6-Cyano-5-methyl-pyridin-2-ylmethyl)-1H-pyrazol-3-yl]-2-[4-(1-methyl-cyclopropyl)-phenyl]-acetamide], the 50% inhibitory concentration (IC50) worked out at 25 nM.

Turning to `CC1(C)Cc2cc(CC(=O)Nc3ccn(Cc4ccc(C#N)cn4)n3)ccc2O1` [Example 378, N-[1-(5-Cyano-pyridin-2-ylmethyl)-1H-pyrazol-3-yl]-2-(2,2-dimethyl-2,3-dihydro-benzofuran-5-yl)-acetamide], the half-inhibitory concentration (IC50) turned out to be 249 nM.

As for `CC1(C)COc2ccc(CC(=O)Nc3ccn(Cc4ccc(C#N)cn4)n3)cc21` [Example 379, N-[1-(5-Cyano-pyridin-2-ylmethyl)-1H-pyrazol-3-yl]-2-(3,3-dimethyl-2,3-dihydro-benzofuran-5-yl)-acetamide], the 50% inhibitory concentration (IC50) was 658 nM.

With `CC1(C)Cc2ccc(CC(=O)Nc3ccn(Cc4ccc(C#N)cn4)n3)cc2O1` [Example 380, N-[1-(5-Cyano-pyridin-2-ylmethyl)-1H-pyrazol-3-yl]-2-(2,2-dimethyl-2,3-dihydro-benzofuran-6-yl)-acetamide], the IC50 is 214 nM.

Consider `Cc1ccc(CC(=O)Nc2ccn(Cc3ccc(C#N)cn3)n2)cc1OCC(F)(F)F` [Example 381, N-[1-(5-Cyano-pyridin-2-ylmethyl)-1H-pyrazol-3-yl]-2-[4-methyl-3-(2,2,2-trifluoro-ethoxy)-phenyl]-acetamide], for which the IC50 was 54 nM.

`N#Cc1ccc(Cn2ccc(NC(=O)Cc3ccc(OCC(F)(F)F)c(F)c3)n2)nc1` [Example 382, N-[1-(5-Cyano-pyridin-2-ylmethyl)-1H-pyrazol-3-yl]-2-[3-fluoro-4-(2,2,2-trifluoro-ethoxy)-phenyl]-acetamide]: the IC50 is 114 nM.

Regarding `COC1(c2ccc(CC(=O)Nc3ccn(Cc4ccc(C#N)cn4)n3)cc2)CC1` [Example 384, N-[1-(5-Cyano-pyridin-2-ylmethyl)-1H-pyrazol-3-yl]-2-[4-(1-methoxy-cyclopropyl)-phenyl]-acetamide], the half-inhibitory concentration (IC50) is 128 nM.

Regarding `CC(C)c1ccc(CC(=O)Nc2ccn(Cc3ccc(C#N)c(C(F)F)n3)n2)cc1` [Example 385, N-[1-(5-Cyano-6-difluoromethyl-pyridin-2-ylmethyl)-1H-pyrazol-3-yl]-2-(4-isopropyl-phenyl)-acetamide], the 50% inhibitory concentration (IC50) turned out to be 44 nM.

Regarding `CC(C)c1ccc(CC(=O)Nc2ccn(Cc3cc(C(F)F)c(C#N)cn3)n2)cc1` [Example 386, N-[1-(5-cyano-4-difluoromethyl-pyridin-2-ylmethyl)-1H-pyrazol-3-yl]-2-(4-isopropyl-phenyl)-acetamide], the IC50 is 69 nM.

`CC1(C)COc2cc(CC(=O)Nc3ccn(Cc4ccc(C#N)cn4)n3)ccc21` [Example 387, N-[1-(5-Cyano-pyridin-2-ylmethyl)-1H-pyrazol-3-yl]-2-(3,3-dimethyl-2,3-dihydro-benzofuran-6-yl)-acetamide]: the IC50 was 122 nM.

In the case of `N#Cc1cnc(Cn2ccc(NC(=O)Cc3ccc(C4(C(F)(F)F)CC4)cc3)n2)c(F)c1` [Example 389, N-[1-(5-Cyano-3-fluoro-pyridin-2-ylmethyl)-1H-pyrazol-3-yl]-2-[4-(1-trifluoromethyl-cyclopropyl)-phenyl]-acetamide], the IC50 was 506 nM.

As to `N#Cc1ccc(Cn2ccc(NC(=O)Cc3ccc(C4(C#N)CC(F)(F)C4)cc3)n2)nc1` [Example 390, 2-[4-(1-Cyano-3,3-difluoro-cyclobutyl)-phenyl]-N-[1-(5-cyano-pyridin-2-ylmethyl)-1H-pyrazol-3-yl]-acetamide], the IC50 came out at 47 nM.

On to `Cc1cc(CC(=O)Nc2ccn(Cc3ccc(F)c(C#N)n3)n2)ccc1OCC(F)(F)F` [Example 391, N-[1-(6-Cyano-5-fluoro-pyridin-2-ylmethyl)-1H-pyrazol-3-yl]-2-[3-methyl-4-(2,2,2-trifluoro-ethoxy)-phenyl]-acetamide], for which the 50% inhibitory concentration (IC50) was 2.1 nM.

`CC(C)Cc1ccc(CC(=O)Nc2ccn(Cc3ccc(C#N)cn3)n2)cc1C#N` [Example 392, 2-(3-Cyano-4-isobutyl-phenyl)-N-[1-(5-cyano-pyridin-2-ylmethyl)-1H-pyrazol-3-yl]-acetamide]: the half-maximal inhibitory concentration (IC50) came to 101 nM.

In the case of `CC(C)Cc1ccc(CC(=O)Nc2ccn(Cc3ccc(F)c(F)c3)n2)cc1C#N` [Example 393, 2-(3-Cyano-4-isobutyl-phenyl)-N-[1-(3,4-difluoro-benzyl)-1H-pyrazol-3-yl]-acetamide], the IC50 is 51 nM.

As for `CC(C)c1ccc(CC(=O)Nc2ccn(Cc3ccc(N4CCC4)cn3)n2)cc1` [Example 394, N-[1-(5-Azetidin-1-yl-pyridin-2-ylmethyl)-1H-pyrazol-3-yl]-2-(4-isopropyl-phenyl)-acetamide], the concentration for half-maximal inhibition (IC50) was found to be 126 nM.

Regarding `CC(C)c1ccc(CC(=O)Nc2ccn(Cc3ccc(N4CCCC4)cn3)n2)cc1` [Example 395, 2-(4-Isopropyl-phenyl)-N-[1-(5-pyrrolidin-1-yl-pyridin-2-ylmethyl)-1H-pyrazol-3-yl]-acetamide], the IC50 is 315 nM.

For the compound `CC(C)c1ccc(CC(=O)Nc2ccn(Cc3ccc(N4CCC(F)(F)C4)cn3)n2)cc1` [Example 396, N-{1-[5-(3,3-Difluoro-pyrrolidin-1-yl)-pyridin-2-ylmethyl]-1H-pyrazol-3-yl}-2-(4-isopropyl-phenyl)-acetamide], the IC50 was 369 nM.

Regarding `N#Cc1ccc(Cn2ccc(NC(=O)Cc3ccc(OCC4CC4)c(OC(F)(F)F)c3)n2)nc1` [Example 397, N-[1-(5-Cyano-pyridin-2-ylmethyl)-1H-pyrazol-3-yl]-2-(4-cyclopropylmethoxy-3-trifluoromethoxy-phenyl)-acetamide], the IC50 came out at 44 nM.

In the case of `O=C(Cc1ccc(OCC2CC2)c(OC(F)(F)F)c1)Nc1ccn(Cc2ccc(F)c(F)c2)n1` [Example 398, 2-(4-Cyclopropylmethoxy-3-trifluoromethoxy-phenyl)-N-[1-(3,4-difluoro-benzyl)-1H-pyrazol-3-yl]-acetamide], the IC50 came out at 39 nM.

On to `Cc1cc(CC(=O)Nc2ccn(Cc3cc(C#N)c(F)cn3)n2)ccc1OCC(F)(F)F` [Example 399, N-[1-(4-Cyano-5-fluoro-pyridin-2-ylmethyl)-1H-pyrazol-3-yl]-2-[3-methyl-4-(2,2,2-trifluoro-ethoxy)-phenyl]-acetamide], for which the IC50 came to 60 nM.

Regarding `CC(C)(C)c1ccc(CC(=O)Nc2ccn(Cc3cc(C#N)c(F)cn3)n2)cc1` [Example 400, 2-(4-tert-Butyl-phenyl)-N-[1-(4-cyano-5-fluoro-pyridin-2-ylmethyl)-1H-pyrazol-3-yl]-acetamide], the concentration for half-maximal inhibition (IC50) was 49 nM.

Consider `CC(C)c1ccc(CC(=O)Nc2ccn(Cc3cc(C#N)c(F)cn3)n2)cc1` [Example 401, N-[1-(4-Cyano-5-fluoro-pyridin-2-ylmethyl)-1H-pyrazol-3-yl]-2-(4-isopropyl-phenyl)-acetamide], for which the 50% inhibitory concentration (IC50) was 126 nM.

Take `N#Cc1cc(Cn2ccc(NC(=O)Cc3ccc(C4(C(F)(F)F)CC4)cc3)n2)ncc1F` [Example 402, N-[1-(4-Cyano-5-fluoro-pyridin-2-ylmethyl)-1H-pyrazol-3-yl]-2-[4-(1-trifluoromethyl-cyclopropyl)-phenyl]-acetamide]: the IC50 is 106 nM.

`N#Cc1ccc(Cn2ccc(NC(=O)Cc3ccc(C4(C#N)CC4)c(C(F)(F)F)c3)n2)nc1` [Example 403, 2-[4-(1-Cyano-cyclopropyl)-3-trifluoromethyl-phenyl]-N-[1-(5-cyano-pyridin-2-ylmethyl)-1H-pyrazol-3-yl]-acetamide]: the half-maximal inhibitory concentration (IC50) came to 97 nM.

For the compound `N#CC1(c2ccc(CC(=O)Nc3ccn(Cc4ccc(F)c(F)c4)n3)cc2C(F)(F)F)CC1` [Example 404, 2-[4-(1-Cyano-cyclopropyl)-3-trifluoromethyl-phenyl]-N-[1-(3,4-difluoro-benzyl)-1H-pyrazol-3-yl]-acetamide], the IC50 amounted to 14 nM.

For the compound `N#Cc1ccc(Cn2ccc(NC(=O)Cc3ccc(OCC(F)(F)F)c(C4CC4)c3)n2)nc1` [Example 406, N-[1-(5-Cyano-pyridin-2-ylmethyl)-1H-pyrazol-3-yl]-2-[3-cyclopropyl-4-(2,2,2-trifluoro-ethoxy)-phenyl]-acetamide], the 50% inhibitory concentration (IC50) worked out at 15 nM.

For the compound `N#Cc1nc(Cn2ccc(NC(=O)Cc3ccc(OCC(F)(F)F)c(C4CC4)c3)n2)ccc1F` [Example 408, N-[1-(6-Cyano-5-fluoro-pyridin-2-ylmethyl)-1H-pyrazol-3-yl]-2-[3-cyclopropyl-4-(2,2,2-trifluoro-ethoxy)-phenyl]-acetamide], the concentration for half-maximal inhibition (IC50) amounted to 8.5 nM.

As for `N#Cc1cc(Cn2ccc(NC(=O)Cc3ccc(OCC(F)(F)F)c(C4CC4)c3)n2)ncc1F` [Example 409, N-[1-(4-Cyano-5-fluoro-pyridin-2-ylmethyl)-1H-pyrazol-3-yl]-2-[3-cyclopropyl-4-(2,2,2-trifluoro-ethoxy)-phenyl]-acetamide], the IC50 was 43 nM.

Turning to `Cc1cc(CC(=O)Nc2ccn(Cc3ccc(F)c(C#N)n3)n2)ccc1OC(F)(F)F` [Example 410, N-[1-(6-Cyano-5-fluoro-pyridin-2-ylmethyl)-1H-pyrazol-3-yl]-2-(3-methyl-4-trifluoromethoxy-phenyl)-acetamide], the IC50 came out at 17 nM.

Take `CCc1cc(CC(=O)Nc2ccn(Cc3ccc(F)c(C#N)n3)n2)ccc1OCC(F)(F)F` [Example 412, N-[1-(6-Cyano-5-fluoro-pyridin-2-ylmethyl)-1H-pyrazol-3-yl]-2-[3-ethyl-4-(2,2,2-trifluoro-ethoxy)-phenyl]-acetamide]: the half-inhibitory concentration (IC50) was 5.3 nM.

As to `CCc1cc(CC(=O)Nc2ccn(Cc3cc(C#N)c(F)cn3)n2)ccc1OCC(F)(F)F` [Example 413, N-[1-(4-Cyano-5-fluoro-pyridin-2-ylmethyl)-1H-pyrazol-3-yl]-2-[3-ethyl-4-(2,2,2-trifluoro-ethoxy)-phenyl]-acetamide], the IC50 came to 30 nM.
